Reference: patent US10501460B2, “Heterocyclic compounds and uses thereof” (Plexxikon Inc., priority 2013, dated 2019)

Assays:
MV-4-11 = experiment: Oncology cell growth assay MV-4-11 (CellTiter Glo, 72 hours); assay type: cell-based; conditions: Homo sapiens, MV4-11, 72 h; MV-4-11 cell growth inhibitory activity, 3d
From the text: (§1) Published bromodomain inhibitors JQ1 and iBET 151 have shown activity in variety of cancer cells such leukemia and lymphoma, multiple myeloma cells, NUT midline carcinoma and glioblastoma cells (Dawson M A et al. 2011; Delmore J E 2011; Chen Z et al. 2013; Filippakopoulos P et al. 2010; Mertz J A et al. 2011; Ott C J et al. 2012). In this study, we test compounds in different cancer cell lines. MV-4-11 and MOLM-13 are AML cell lines harboring a MLL-AF4 and MLL-AF9 translocation, respectively. MM.1S is a multiple myeloma cell line. SK-N-AS, IMR-32 and SK-N-BE(2) are neuroblastoma cell lines. IMR-32 and SK-N-BE(2) cell lines harbor MYCN amplifications. MV-4-11, MM.1S, IMR-32, SK-N-AS and SK-N-BE(2) were obtained from ATCC (IL, USA) and MOLM-13 were purchased from DSMZ (Braunschweig, German). Cells are cultured as recommended by their sources. For growth inhibition studies 3000 cells are seeded in wells of a 96-well plate in 75 μL of culture media. After several hours, growth media containing compounds of formula (I) are added to the wells. Compound at a maximal concentration of 5 mM was serially diluted 1:3 for a total of 8 point titration with DMSO as a control. A 1 μL aliquot of each dilution point is added to 249 μL growth media and 75 μL is added to each well containing cells, providing 10 μM compound at the maximum concentration point. The final concentration of DMSO in all wells is 0.2%. Cells are incubated for 72 hours, and 25 μL of CellTiter Glo Reagent (Promega Ga., USA) is added to each well. Plates are shaken for approximately 10 minutes and chemiluminescent signal is read on Tecan microplate reader. The measured luminescence correlates directly with cell number.
(§2) All data is normalized to the mean of eight DMSO high control wells on each plate. A four parameter curve fit of the following formula was then applied: Y=a+(b−a)/(1+(x/c)^d) Where ‘a’ is the minimum, ‘b’ is the maximum, ‘c’ is the pIC50 and ‘d’ is the Hill slope. […] Myc Reporter Assay
The following table provides data indicating the BRD4 biochemical inhibitory activity and MV-4-11 cell growth inhibitory activity for exemplary compounds as described herein.

bromodomain = experiment: Bromodomain cell assays of Example 40 (at least one of them); assay type: cell-based; conditions: in at least one of the bromodomain cell assays described in Example 40
From the text: as §1, §2
In MV-4-11 cells, BRD2, BRD3 and BRD4 bind to the promoter region of MYC and regulate its transcription (Dawson M A et al. 2011). The literature bromodomain inhibitor iBET 151 could disrupt BRD4 recruitment to the MYC promoter and subsequently downregulate c-myc transcription (Dawson M A et al. 2011). Myc protein is a transcription factor that heterodimerizes with an obligatory partner Max and regulates the transcription of genes important for cell proliferation, differentiation, and apoptosis. This Myc reporter assay is used to monitor the inhibitory effect of compound of formula (I) on Myc dependent gene expression. Effective compounds could have potential therapeutic effects in Myc-driven tumors.
The MV-4-11 Myc reporter cell line is established by infecting MV-4-11 with VSV-g pseudotyped lentivirus expressing the firefly luciferase gene under the control of a minimal (m) CMV promoter and tandem repeats of the E-box transcriptional response element (TRE) (Qiagen IL, USA) and selecting cells in […] Puromycin.
The MV-4-11 Myc reporter cell line is maintained in Iscove's Modified Dulbecco's Medium containing 10% FBS, 1% PenStep and 2.5 μg/ml Puromycin. Cells are incubated at 37° C. in a humidified atmosphere with 5% CO2. 25,000 cells are seeded in 96-well plate in 50 μL of culture media. After several hours, growth media containing 2× compounds are added to the wells. Compound at a maximal concentration of 5 mM is serially diluted 1:3 for a total of 8 point titration. A 1 μl aliquot of each dilution point is added to 249 μl growth media and 50 μl is added to each well containing cells, providing 10 μM compound at the maximum concentration point. DMSO treated cells serve as a high control and 10 μM JQ1 treated cells serve as a low control. Cells are incubated for a further 24 hours and 25 μL of CellTiter-Fluo Reagent (Promega Ga., USA) is added to each well. Plates are shaken for approximately 2 minutes and incubated at 37° C. for 0.5 hour. […]

| Structure (SMILES) | IC50 (MV-4-11) | IC50 (bromodomain) |
| --- | --- | --- |
| CCOC(=O)C(c1ccccc1)n1cc(-c2cnn(C)c2)c2ncc(-c3c(C)noc3C)cc21 (stereo not drawn) [P-0186, ethyl 2-[6-(3,5-dimethylisoxazol-4-yl)-3-(1-methylpyrazol-4-yl)pyrrolo[3,2-b]pyridin-1-yl]-2-phenyl-acetate] | ≤ 1 µM | < 10 µM |
| CCc1[nH]c2ncc(-c3c(C)noc3C)cc2c1C(O)c1ccccc1Cl (stereo not drawn) [P-0042, (2-chlorophenyl)-[5-(3,5-dimethylisoxazol-4-yl)-2-ethyl-1H-pyrrolo[2,3-b]pyridin-3-yl]methanol] | ≤ 1 µM | < 10 µM |
| Cc1noc(C)c1-c1cnc2ccn(S(=O)(=O)C3CCCC3)c2c1 [P-0037, 4-(1-cyclopentylsulfonylpyrrolo [3,2-b]pyridin-6-yl)-3,5-dimethyl-isoxazole] | ≤ 1 µM | < 10 µM |
| Cc1noc(C)c1-c1cnc2c(-c3cnn(C4CCCCO4)c3)cn(S(=O)(=O)c3ccccc3)c2c1 (stereo not drawn) [P-0168, 4-[1-(benzenesulfonyl)-3-(1-tetrahydropyran-2-ylpyrazol-4-yl)pyrrolo[3,2-b]pyridin-6-yl]-3,5-dimethyl-isoxazole] | ≤ 1 µM | < 10 µM |
| Cc1noc(C)c1-c1cnc2[nH]cc(C(C)(C)c3ccc(F)cc3)c2c1 [P-0063, 4-[3-[1-(4-fluorophenyl)-1-methyl-ethyl]-1H-pyrrolo[2,3-b]pyridin-5-yl]-3,5-dimethyl-isoxazole] | ≤ 1 µM | < 10 µM |
| Cc1noc(C)c1-c1cnc2c(-c3cnn(C)c3)cn(Cc3cc(F)ccc3Cl)c2c1 [P-0190, 4-[1-[(2-chloro-5-fluoro-phenyl)methyl]-3-(1-methylpyrazol-4-yl)pyrrolo[3,2-b]pyridin-6-yl]-3,5-dimethyl-isoxazole] | ≤ 1 µM | < 10 µM |
| C=CCn1cc(-c2cn(S(=O)(=O)CC3CC3)c3cc(-c4c(C)noc4C)cnc23)cn1 [P-0140, 4-[3-(1-allylpyrazol-4-yl)-1-(cyclopropylmethylsulfonyl)pyrrolo[3,2-b]pyridin-6-yl]-3,5-dimethyl-isoxazole] | ≤ 1 µM | < 10 µM |
| Cc1noc(C)c1-c1cnc2[nH]cc(Cc3c(F)cccc3Cl)c2c1 [P-0027, 4-[3-[(2-chloro-6-fluoro-phenyl)methyl]-1H-pyrrolo [2,3-b]pyridin-5-yl]-3,5-dimethyl-isoxazole] | 1 to 10 µM | < 10 µM |
| Cc1noc(C)c1-c1cnc2c(-c3cnn(C)c3)cn(Cc3c(F)cccc3F)c2c1 [P-0173, 4-[1-[(2,6-difluorophenyl)methyl]-3-(1-methylpyrazol-4-yl)pyrrolo[3,2-b]pyridin-6-yl]-3,5-dimethyl-isoxazole] | ≤ 1 µM | < 10 µM |
| Cc1noc(C)c1-c1cnc2[nH]cc(P(C)(=O)c3ccccc3)c2c1 (stereo not drawn) [P-0165, 3,5-dimethyl-4-[3-[methyl(phenyl)phosphoryl]-1H-pyrrolo[2,3-b]pyridin-5-yl]isoxazole] | ≤ 1 µM | < 10 µM |
| C=CCn1cc(-c2cn(S(=O)(=O)CCC(F)(F)F)c3cc(-c4c(C)noc4C)cnc23)cn1 [P-0129, 4-[3-(1-allylpyrazol-4-yl)-1-(3,3,3-trifluoropropylsulfonyl)pyrrolo[3,2-b]pyridin-6-yl]-3,5-dimethyl-isoxazole] | ≤ 1 µM | < 10 µM |
| Cc1noc(C)c1-c1cnc2c(-c3cnn(C4CC4)c3)cn(C(C)c3ccccc3)c2c1 (stereo not drawn) [P-0216, 4-[3-(1-cyclopropylpyrazol-4-yl)-1-(1-phenylethyl)pyrrolo[3,2-b]pyridin-6-yl]-3,5-dimethyl-isoxazole] | ≤ 1 µM | < 10 µM |
| Cc1noc(C)c1-c1cnc2[nH]cc(C3(O)CCC(F)(F)CC3)c2c1 [P-0024, 1-[5-(3,5-dimethylisoxazol-4-yl)-1H-pyrrolo[2,3-b]pyridin-3-yl]-4,4-difluoro-cyclohexanol] | 1 to 10 µM | < 10 µM |
| Cc1noc(C)c1-c1cnc2c(c1)c(C(O)C1CCSCC1)cn2S(=O)(=O)c1ccccc1 (stereo not drawn) [P-0090, [1-(benzenesulfonyl)-5-(3,5-dimethylisoxazol-4-yl)pyrrolo[2,3-b]pyridin-3-yl]-tetrahydrothiopyran-4-yl-methanol] | 1 to 10 µM | < 10 µM |
| Cc1noc(C)c1-c1cnc2c(-c3cnn(CC(F)(F)F)c3)cn(S(=O)(=O)c3ccccc3)c2c1 [P-0146, 4-[1-(benzenesulfonyl)-3-[1-(2,2,2-trifluoroethyl)pyrazol-4-yl]pyrrolo[3,2-b]pyridin-6-yl]-3,5-dimethyl-isoxazole] | ≤ 1 µM | < 10 µM |
| C=CCn1cc(-c2cn(S(=O)(=O)C3CCCC3)c3cc(-c4c(C)noc4C)cnc23)cn1 [P-0128, 4-[3-(1-allylpyrazol-4-yl)-1-cyclopentylsulfonyl-pyrrolo [3,2-b]pyridin-6-yl]-3,5-dimethyl-isoxazole] | ≤ 1 µM | < 10 µM |
| CCc1[nH]c2ncc(-c3c(C)noc3C)cc2c1Cc1ccccc1Cl [P-0049, 4-[3-[(2-chlorophenyl)methyl]-2-ethyl-1H-pyrrolo[2,3-b]pyridin-5-yl]-3,5-dimethyl-isoxazole] | 1 to 10 µM | < 10 µM |
| Cc1noc(C)c1-c1cnc2c(-c3cnn(C(F)F)c3)cn(CC3CCC(F)(F)CC3)c2c1 [P-0210, 4-[1-[(4,4-difluorocyclohexyl)methyl]-3-[1-(difluoromethyl)pyrazol-4-yl]pyrrolo[3,2-b]pyridin-6-yl]-3,5-dimethyl-isoxazole] | ≤ 1 µM | < 10 µM |
| Cc1noc(C)c1-c1cnc2c(-c3cnn(C(F)F)c3)cn(S(=O)(=O)c3ccccc3F)c2c1 [P-0132, 4-[3-[1-(difluoromethyl)pyrazol-4-yl]-1-(2-fluorophenyl)sulfonyl-pyrrolo[3,2-b]pyridin-6-yl]-3,5-dimethyl-isoxazole] | ≤ 1 µM | < 10 µM |
| Cc1nn(C)cc1-c1cn(C(C)c2ccccc2)c2cc(-c3c(C)noc3C)cnc12 (stereo not drawn) [P-0205, 4-[3-(1,3-dimethylpyrazol-4-yl)-1-(1-phenylethyl)pyrrolo[3,2-b]pyridin-6-yl]-3,5-dimethyl-isoxazole] | ≤ 1 µM | < 10 µM |
| Cc1noc(C)c1-c1cnc2[nH]cc(C3=CCC(F)(F)CC3)c2c1 [P-0029, 4-[3-(4,4-difluorocyclohexen-1-yl)-1H-pyrrolo[2,3-b]pyridin-5-yl]-3,5-dimethyl-isoxazole] | 1 to 10 µM | < 10 µM |
| CCCS(=O)(=O)n1cc(-c2cnn(CC(F)(F)F)c2)c2ncc(-c3c(C)noc3C)cc21 [P-0150, 3,5-dimethyl-4-[1-propylsulfonyl-3-[1-(2,2,2-trifluoroethyl)pyrazol-4-yl]pyrrolo[3,2-b]pyridin-6-yl]isoxazole] | ≤ 1 µM | < 10 µM |
| Cc1noc(C)c1-c1cnc2[nH]cc(C(=O)C3CCC(F)(F)CC3)c2c1 [P-0031, (4,4-difluorocyclohexyl)-[5-(3,5-dimethylisoxazol-4-yl)-1H-pyrrolo[2,3-b]pyridin-3-yl]methanone] | 1 to 10 µM | < 10 µM |
| Cc1noc(C)c1-c1cnc2[nH]cc(Sc3cccc(F)c3)c2c1 [P-0141, 4-[3-(3-fluorophenyl)sulfanyl-1H-pyrrolo[2,3-b]pyridin-5-yl]-3,5-dimethyl-isoxazole] | 1 to 10 µM | < 10 µM |
